pIC50: −log10 of the molar value. Read-outs that look alike come from different tables or passages of the source.
What was measured:
[1] = target: T1, C-Raf kinase (Homo sapiens, UniProt P04049, Y340D/Y341D); assay: Biochemical Assay for C-Raf (coupled pyruvate kinase/lactate dehydrogenase assay)
T1 construct: C-Raf residues 306-end; Y340D, Y341D with N-; GST (N); purchased Eurofins

[2] = tested on: HCT-116 cells; assay: HCT-116 Cell Proliferation Assay; assay type: cell-based; details: Homo sapiens
Experimental: HCT-116 cells (catalog #CCL-247) are obtained from the American Type Culture Collect (ATCC, Manassas, VA). Briefly, cells are grown in McCoy's 5A supplemented with 10% characterized fetal bovine serum (Invitrogen, Carlsbad, CA) and 1% Penicillin/Streptomycin/L-Glutamine at 37° C., 5% CO2, and 95% humidity. Cells are expanded until reaching 70-95% confluency at which point they are sub-cultured or harvested for assay use. A serial dilution of test compound is dispensed into a 384-well black clear bottom plate in triplicate. 375 cells are added per well in 50 μL complete growth medium in the 384-well plate. Plates are incubated for 67 to 72 h at 37° C., 5% CO2, and 95% humidity. At the end of the incubation, 40 μL of a […] solution of resazurin (Sigma, St. Louis, MO) in PBS is added to each well of the plate and plates are incubated for an additional 4 to 5 hours at 37° C., 5% CO2, and 95% humidity. Plates are read on a Synergy2 or equivalent reader (Biotek, Winooski, VT) using an excitation of 540 nm and an emission of 600 nm. Data is analyzed using Prism software (Graphpad, San Diego, CA) to calculate IC50 values.

[3] = tested on: MiaPaca-2 cells; assay: MiaPaca-2 Cell Proliferation Assay; assay type: cell-based; details: Homo sapiens, MIA PaCa-2
Experimental: MiaPaca-2 cells (catalog #CRL-1420) are obtained from the American Type Culture Collect (ATTC, Manassas, VA). Briefly, cells were grown in DMEM supplemented with 10% characterized fetal bovine serum (Invitrogen, Carlsbad, CA), 2.5% New Zealand sourced horse serum and 1% Penicillin/Streptomycin/L-Glutamine at 37° C., 5% CO2, and 95% humidity. Cells are expanded until reaching 70-95% confluency at which point they are sub-cultured or harvested for assay use. For assays completed in 96-well plates, a serial dilution of test compound is dispensed into a 96-well black clear bottom plate in triplicate. Three thousand cells are added per well in 200 μL complete growth medium in the 96-well plate. Plates are incubated for 67 to 72 h at 37° C., 5% CO2, and 95% humidity. At the end of the incubation, 40 μL of a […] solution of resazurin (Sigma, St. Louis, MO) in PBS is added to each well of the plate and plates are incubated for an additional 5 to 6 hours at 37° C., 5% CO2, and 95% humidity. For 384-well assays, a threefold, 8-point serial dilution of compound was spotted column wise into a 384 well black, clear bottom, tissue culture treated plate using the Beckman Coulter Echo 650. Likewise, a threefold, 8-point serial dilution of cobimetinib was spotted row wise into the 384 well black, clear bottom plate containing compound. DMSO concentration was constant across all wells at 0.4%. Seven hundred fifty cells are added per well in 50 μL complete growth medium in each 384-well plate. Plates are incubated for 67 to 72 h at 37° C., 5% CO2, and 95% humidity. At the end of the incubation, 10 μL of a 440 μM solution of resazurin (Sigma, St. Louis, MO) in PBS is added to each well of the plate and plates are incubated for an additional 4 to 6 h at 37° C., 5% CO2, and 95% humidity. Plates are read on a Synergy2 or equivalent reader (Biotek, Winooski VT) using an excitation of 540 nm and an emission of 600 nm. Data is analyzed using Prism software (Graphpad, San Diego, CA) to calculate IC50 values.

[4] = tested on: tubulin; assay: Cellular Tubulin Polymerization Assay (HCT-116 cells); assay type: cell-based; details: read-out: Tubulin Cellular IC50
[5] = target: T2, B-Raf kinase (Homo sapiens, UniProt P15056); assay: Biochemical Assay for B-Raf (coupled pyruvate kinase/lactate dehydrogenase assay)
T2 construct: GST (N); purchased Sigma

[6] = tested on: HPAF-II cells; assay: HPAF-II Cell Proliferation Assay; assay type: cell-based; details: Homo sapiens
Experimental: HPAF-II cells (catalog #CRL-1997) are obtained from the American Type Culture Collect (ATCC, Manassas, VA). Briefly, cells are grown in Minimum Essential Media supplemented with 10% characterized fetal bovine serum (Invitrogen, Carlsbad, CA) and 1% Penicillin/Streptomycin/L-Glutamine at 37° C., 5% CO2, and 95% humidity. Cells are expanded until reaching 70-95% confluency at which point they are sub-cultured or harvested for assay use. A serial dilution of test compound is dispensed into a 384-well black clear bottom plate in triplicate. 750 cells are added per well in 50 μL complete growth medium in the 384-well plate. Plates are incubated for 115 to 120 h at 37° C., 5% CO2, and 95% humidity. At the end of the incubation, 40 μL of a […] solution of resazurin (Sigma, St. Louis, MO) in PBS is added to each well of the plate and plates are incubated for an additional 18 to 24 h at 37° C., 5% CO2, and 95% humidity. Plates are read on a Synergy2 or equivalent reader (Biotek, Winooski, VT) using an excitation of 540 nm and an emission of 600 nm. Data is analyzed using Prism software (Graphpad, San Diego, CA) to calculate IC50 values.

[7] = tested on: Pa16c cells; assay: Pa16c Cell Proliferation Assay; assay type: cell-based; details: Table 2, inhibition of cell proliferation
Experimental: Pa16c cells are obtained from Dr. Channing Der, University of North Carolina at Chapel Hill. Briefly, cells are grown in Dulbecco's Modified Eagle Medium supplemented with 10% characterized fetal bovine serum (Invitrogen, Carlsbad, CA) and 1% Penicillin/Streptomycin/L-Glutamine at 37° C., 5% CO2, and 95% humidity. Cells are expanded until reaching 70-95% confluency at which point they are sub-cultured or harvested for assay use. A serial dilution of test compound is dispensed into a 384-well black clear bottom plate in triplicate. 750 cells are added per well in 50 μL complete growth medium in the 384-well plate. Plates are incubated for 67 to 72 hours at 37° C., 5% CO2, and 95% humidity. At the end of the incubation, 40 μL of a […] solution of resazurin (Sigma, St. Louis, MO) in PBS is added to each well of the plate and plates are incubated for an additional 18 to 24 hours at 37° C., 5% CO2, and 95% humidity. Plates are read on a Synergy2 or equivalent reader (Biotek, Winooski, VT) using an excitation of 540 nm and an emission of 600 nm. Data is analyzed using Prism software (Graphpad, San Diego, CA) to calculate IC50 values.

[8] = Table 1, inhibition of biochemical activity, read-out: CRAF
[9] = HCT-116, Table 3, read-out: HCT-116 IC50
[10] = Table 2, inhibition of cell proliferation, read-out: HCT-116
[11] = Table 2, inhibition of cell proliferation, read-out: MiaPaca-2
[12] = Table 3, read-out: MiaPaca-2 IC50
[13] = Table 1, inhibition of biochemical activity, read-out: BRAF
[14] = HPAF-II, Table 3, read-out: HPAF-II IC50
[15] = Table 2, inhibition of cell proliferation, read-out: HPAF-II
[16] = HCT-116, Table 4, read-out: HCT-116 IC50
[17] = HPAF-II, Table 4, read-out: HPAF-II IC50
[18] = Table 4, read-out: MiaPaca-2 IC50

T2 sequence (P15056 416-766): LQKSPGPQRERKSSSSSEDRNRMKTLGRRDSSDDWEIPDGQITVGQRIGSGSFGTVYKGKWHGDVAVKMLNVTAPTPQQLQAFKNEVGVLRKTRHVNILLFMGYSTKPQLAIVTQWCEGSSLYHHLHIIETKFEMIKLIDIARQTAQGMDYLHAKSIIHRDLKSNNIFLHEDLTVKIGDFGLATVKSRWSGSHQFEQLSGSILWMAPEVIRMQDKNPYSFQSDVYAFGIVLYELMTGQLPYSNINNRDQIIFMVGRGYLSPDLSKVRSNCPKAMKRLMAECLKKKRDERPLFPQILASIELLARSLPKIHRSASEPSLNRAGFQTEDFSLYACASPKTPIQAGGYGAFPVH
T1 sequence (P04049 307-648 Y340D/Y341D): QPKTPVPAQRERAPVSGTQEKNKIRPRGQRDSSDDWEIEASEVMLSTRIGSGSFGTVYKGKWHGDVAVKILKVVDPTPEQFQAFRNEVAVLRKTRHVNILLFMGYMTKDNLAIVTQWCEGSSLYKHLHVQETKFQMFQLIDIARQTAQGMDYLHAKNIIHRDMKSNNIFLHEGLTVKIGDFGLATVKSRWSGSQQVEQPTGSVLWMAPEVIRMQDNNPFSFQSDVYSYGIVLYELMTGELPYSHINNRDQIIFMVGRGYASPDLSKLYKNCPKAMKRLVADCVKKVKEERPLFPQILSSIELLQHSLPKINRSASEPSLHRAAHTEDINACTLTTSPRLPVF

Row | SMILES | pIC50 [1, 8] | pIC50 ([1]; Table 3, read-out: CRAF IC50) | pIC50 [2, 9] | pIC50 [2, 10] | pIC50 [3, 11] | pIC50 [3, 12] | pIC50 ([4]; Table 3, HCT-116 cells) | pIC50 [5, 13] | pIC50 ([5]; Table 3, read-out: BRAF IC50) | pIC50 [6, 14] | pIC50 [6, 15] | pIC50 [2, 16] | pIC50 ([4]; Table 4, HCT-116 cells) | pIC50 [6, 17] | pIC50 [3, 18] | pIC50 [7] | pIC50 ([1]; Table 4, read-out: CRAF IC50) | pIC50 ([5]; Table 4, read-out: BRAF IC50)
1 | CNc1cc(-c2cc(-c3cc(NC(=O)Nc4ccc(C(F)(F)F)nc4)ccc3C)ccn2)ccn1 [Example 19] | > 7.00 | > 7.00 | 6.30 to 7.00 | 6.30 to 7.00 | 6.30 to 7.00 | 6.30 to 7.00 | > 7.00 | 6.30 to 7.00 | > 7.00 | 6.30 to 7.00 | 6.30 to 7.00 |  |  |  |  |  |  | 
2 | CC(=O)Nc1cc(-c2cc(-c3cc(NC(=O)Nc4ccc(C(F)(F)F)cc4)cnc3C)ccn2)ccn1 [reference compound] |  |  |  |  |  |  |  |  |  |  |  | 5.00 to 6.00 | 5.00 to 6.00 | 5.00 to 6.00 |  |  |  | 
3 | Cc1ccc(NC(=O)Nc2cccc(C(F)(F)F)c2)cc1-c1cc(OCCO)nc(N2CCOCC2)c1 [reference compound] |  |  |  |  |  |  |  |  |  |  |  | 6.30 to 7.00 | 5.00 to 6.00 |  |  |  |  | 
4 | CNC(=O)c1cc(-c2cc(-c3cc(NC(=O)Nc4ccnc(C(C)(C)C#N)c4)ccc3C)ccn2)ccn1 [reference compound] |  |  |  |  |  |  |  |  |  |  |  | 5.00 to 6.00 | 5.00 to 6.00 |  | 6.00 to 6.30 |  |  | 
5 | Cc1ccc(NC(=O)Nc2ccc(C(F)(F)F)nc2)cc1-c1ccnc(N2CCOCC2)c1 [Example 36] | > 7.00 | 6.30 to 7.00 | > 7.00 | > 7.00 | > 7.00 | > 7.00 | > 7.00 | 6.30 to 7.00 | 6.30 to 7.00 | > 7.00 | > 7.00 |  |  |  |  |  |  | 
6 | CNc1cc(-c2cc(-c3cc(NC(=O)Nc4ccc(C(F)(F)F)nc4)ccc3C)cc(OCCO)n2)ccn1 [Example 17] | > 7.00 | 6.30 to 7.00 | > 7.00 | > 7.00 | > 7.00 | > 7.00 |  | 6.30 to 7.00 | 6.30 to 7.00 | 6.00 to 6.30 | 6.00 to 6.30 |  |  |  |  | > 7.00 |  | 
7 | Cc1ccc(NC(=O)Nc2ccc(C(F)(F)F)nc2)cc1-c1ccnc(-c2ccnc(NC(=O)CN(C)C)c2)c1 [Example 18] | > 7.00 | > 7.00 | 6.30 to 7.00 |  | > 7.00 | > 7.00 | 6.30 to 7.00 | > 7.00 | > 7.00 | 6.30 to 7.00 |  |  |  |  |  |  |  | 
8 | Cc1cc(F)c(NC(=O)NCCC(C)(C)C)cc1-c1cc(OCCO)nc(N2CCOCC2)c1 [reference compound] |  |  |  |  |  |  |  |  |  |  |  | 5.00 to 6.00 | 5.00 to 6.00 | 5.00 to 6.00 | 5.00 to 6.00 |  | > 7.00 | > 7.00
9 | CC(=O)Nc1cc(-c2cc(-c3cc(NC(=O)NCCC4(C)CC4)c(F)cc3C)ccn2)ccn1 [reference compound] |  |  |  |  |  |  |  |  |  |  |  | 6.00 to 6.30 | 5.00 to 6.00 | 6.00 to 6.30 | 5.00 to 6.00 |  | > 7.00 | > 7.00
10 | Cc1ccc(NC(=O)Nc2cc(C(F)(F)F)cnn2)cc1-c1ccnc(-c2ccnc(NC(=O)C3CC3)c2)c1 [Example 22, N-(4-(2-methyl-5-(3-(5-(trifluoromethyl)pyridazin-3-yl)ureido)phenyl)-[2,4′-bipyridin]-2′-yl)cyclopropanecarboxamide] | > 7.00 |  |  | 6.00 to 6.30 | 6.00 to 6.30 |  |  | > 7.00 |  |  | 5.00 to 6.00 |  |  |  |  | 5.00 to 6.00 |  | 
11 | CNC(=O)c1cc(-c2cc(-c3cc(NC(=O)Nc4ccc(C(F)(F)F)nc4)ccc3C)ccn2)ccn1 [Example 20] | > 7.00 | > 7.00 | > 7.00 | > 7.00 | > 7.00 | > 7.00 | > 7.00 | 6.30 to 7.00 | 6.30 to 7.00 | 6.30 to 7.00 | 6.30 to 7.00 |  |  |  |  |  |  | 
